Assay results as given in patent US7109160B1, “Peptides containing the motif IGD and their use as cell migration modulators” (University of Dundee, priority 1997, dated 2006).
Entries after “also recorded” stand apart in the source; their conditions may differ.

Assays:
[1] = test system: human skin fibroblasts (SK319 and FSF44); experiment: Inhibitors of early and late aspects of IGDS activity (pre-incubation protocols, collagen gel assay); format: cell-based; parameters: key to Inhibitory activity: early events / Inhibitory activity: late events: yes(+); no(−); conditions: for inhibition at 10 µg/mL: Homo sapiens, Skin fibroblast; for effect on IGDS-induced cell migration (late events), in words / effect on initial IGDS signalling (early events), in words: Table 3
Method: (§1) Migration Assays. In the collagen gel assay, pre-formed 2 ml gels were overlaid with 1 ml of serum-free MEM (controls) or serum-free MEM containing the requisite concentration of effector molecule to give the desired final concentration. Trypsinised fibroblasts were suspended in serum-free MEM to give an inoculum containing 2×10^5 cells/ml and 1 ml of this was plated onto replicate control and test gels.
The specific effects of potential inhibitory molecules on such early and late events were examined by using the following experimental protocol: (a) pre-incubating cells with IGDS (SEQ ID NO 2) and inhibitor and then assaying these treated cells in the absence of both IGDS (SEQ ID NO 2) and inhibitor (note: this protocol provides data concerning the effects of inhibitor on the early events mediating IGDS (SEQ ID NO 2) activity), (b) pre-incubating cells with neither IGDS (SEQ ID NO 2) nor inhibitor and assaying them in the presence of both (the effects of inhibitor on both early and late events), (c) pre-incubating cells with IGDS (SEQ ID NO 2) alone and then assaying them in the presence of inhibitor only (the effects of inhibitor on late events), and finally, (d) pre-incubating cells with inhibitor alone and then assaying them in the presence of IGDS (SEQ ID NO 2) to provide control information regarding possibly persistent effects of inhibitor which would confound data interpretation. Data presented in Table IA are concerned with the effects of the synthetic RGDS (SEQ ID NO 6) and RGES (SEQ ID NO 5).

[2] = test system: human skin fibroblasts (SK319 and FSF44); experiment: Native collagen gel migration assay; format: cell-based; conditions: for effect on cell migration into native type I collagen gels: human dermal fibroblasts, 4-day incubation, FIG. 1
Method: Assays were performed as described in Materials and Methods in Example 1. Results are normalised by expressing them as “relative stimulation” of migration, this being calculated by dividing the percentage of cells in the gel matrix for each experimental point by the control value obtained in that particular experiment. Data are presented as the mean ±SD of five experiments. For clarity, the shaded area indicates the spread of standard deviations for data points not plotted with error bars. Upper panel: results obtained with the indicated synthetic peptides. Lower panel: results obtained with native fibronectin (FN), and its cell-binding (Cell-BD) and gelatin-binding (Gel-BD) domains.
(§2) Cells. Experiments were performed with two lines of human skin fibroblasts (SK319 and FSF44, between passage 10–18) shown to be free of mycoplasmal contamination by staining with Hoechst 33256. Identical results were obtained with both lines and these cells are consequently not individually identified in the Figures. Stock cultures were maintained in Eagle's Minimal Essential (MEM), as previously described^7.
as §1

rat wound healing model = experiment: Rat wound healing model (subcutaneous porcine dermal collagen film implants); format: in vivo; conditions: 1 μg/ml in collagen film, implanted subcutaneously, 28 days, p < 0.01
Description: In this experimental system, 1 cm^2 pieces of porcine dermal collagen films impregnated with either control medium or medium containing the indicated concentration of test substance were implanted subcutaneously into rats. The animals were sacrificed 28 days later and the removed collagen implants fixed and sectioned for image analysis.

[3] = test system: human skin fibroblasts (SK319 and FSF44); experiment: Pre-incubation of cells with IGDS, subsequent migration in native collagen gel assay; format: cell-based
Method: Confluent cells on plastic tissue culture dishes were washed 3× with serum-free MEM (SF-MEM) and then incubated for various times with the indicated concentrations of IGDS (SEQ ID NO 2) in SF-MEM. They were then trypsinised and washed extensively by repeated (5×) cycles of centrifugation and resuspension in SF-MEM. The behaviour of these pre-incubated cells was assessed in the collagen gel assay in the absence of further IGDS (SEQ ID NO 2)(indicated as IGDS (SEQ ID NO 2) not in assay). […] Data were obtained from three experiments and are expressed as mean ±SD.
as §1

[4] = test system: human skin fibroblasts (SK319 and FSF44); experiment: Collagen gel assay with combinations of peptides (co-incubation); format: cell-based
Method: The collagen gel assay was performed in the presence of various combinations of the indicated peptides and the percentage of cells present within the gel matrix measured after a four-day incubation period. Data are expressed as mean ±SD obtained in three experiments. Panel A: combinations of the gelatin-binding domain (Gel-BD) and IGDS (SEQ ID NO 2); Panel B: combinations of IGDS (SEQ ID NO 2) and RGDS (SEQ ID NO 6); Panel C: combinations of IGDS (SEQ ID NO 2) and the cell-binding domain (Cell-BD).
as §1
The possible mechanistic relationship between IGDS (SEQ ID NO 2) and the gelatin-binding domain in which it is contained was further examined by co-incubating cells with suboptimal concentrations of each.
Possible mechanistic interactions between IGDS (SEQ ID NO 2) and RGDS (SEQ ID NO 6) were studied in similar co-incubation experiments.

[5] = test system: human skin fibroblasts (SK319 and FSF44); experiment: Transmembrane migration assay (membranes coated with native type I collagen or gelatin); format: cell-based; conditions: FIG. 2; for effect on cell migration through gelatin-coated membranes: gelatin (heat-denatured type I collagen)-coated membranes; for effect on cell migration through membranes coated with native collagen: native type I collagen-coated membranes
Method: Assays were performed as described in Materials and Methods in Example 1. Results from five experiments are presented as mean ±SD. Shaded area indicates the spread of standard deviations for data points not plotted with error bars. Panel A: results obtained with IGDS (SEQ ID NO 2) and the gelatin-binding domain (Gel-BD) on membranes coated with native collagen and gelatin. Panel B: results obtained with RGDS (SEQ ID NO 6), native fibronectin (FN), and its cell-binding domain (Cell-BD).
as §2
Polycarbonate membranes used in the transmembrane assay were immersed in an aqueous solution containing 10 μg/ml of either native type I collagen or heat-denatured type I collagen (gelatin) overnight at 37° C. and then air-dried. Assays were performed as previously described^7.

chick yolk sac membrane = experiment: Chick yolk sac membrane angiogenesis assay; format: in vivo; conditions: for Positive responses (%) / Positive responses (positive/total): assessed after 24 hr; for angiogenic response in the chick yolk sac membrane, in words: in vivo
Description: Dried methylcellulose pellets containing the test samples and control pellets (lacking the test samples) were placed on the yolk sac membrane of 6-day chick embryos, as described in Materials and Methods in Example 1. The elicited reaction was checked after six hours and assessed after 24 hr by observation of living embryos with a stereomicroscope. […] After assessment at 24 hr, selected membranes were fixed in 2.5% EM grade glutaraldehyde in 0.2 M phosphate buffer, pH 7.4. These preparations were then stained with 1% toluidine blue and photographed using a Leica DM LB microscope. […] Bar=250 μm.
Chick yolk sac membrane angiogenesis assay. The assay was performed essentially as described by Gush et al (1990) J. Med. Engineer. Tech. 14, 205–209. Accordingly, four-day-old fertilised eggs were cracked in a tumbler, covered with a Petri dish and incubated at 37° C. Two days later dried methylcellulose pellets containing the test samples and control pellets (lacking the test samples) were placed on the yolk sac membrane. The elicited angiogenic reaction was assessed after 24 hr by observation of living embryos with a stereomicroscope. Selected membranes were fixed in 2.5% EM grade glutaraldehyde in 0.2 M phosphate buffer (pH 7.4), dissected, stained with 1% toluidine blue and mounted on glass slides for photomicroscopy.

[6] = Genistein 10 μg/ml, PD98059 2.0 μM, PKA inhib 5 nM
[7] = Genistein 10 μg/ml, PD98059 2.0 μM, PKA inhib 5 nM, no pre-incubation, IGDS and inhibitor in assay (early and late events)
[8] = Genistein 10 μg/ml, PD98059 2.0 μM, PKA inhib 5 nM, pre-incubation with IGDS alone, inhibitor only in assay (late events)
[9] = Genistein 10 μg/ml, PD98059 2.0 μM, PKA inhib 5 nM, pre-incubation with IGDS and inhibitor, neither in assay (early events)
[10] = peptide 10.0 μ molar, no pre-incubation, IGDS and peptide in assay (early and late events)
[11] = peptide 10.0 μ molar, pre-incubation with IGDS alone, peptide only in assay (late events)
[12] = peptide 10.0 μ molar, pre-incubation with IGDS and peptide, neither in assay (early events)

For O=c1c(-c2ccc(O)cc2)coc2cc(O)cc(O)c12 [Genistein], the “Inhibitory activity: early events” value [1, 6] was “early events: +”, the “Inhibitory activity: late events” value [1, 6] was “late events: −” and the inhibition at 10 µg/mL [1, 7] was 94.1 ± 6.5%. The inhibition at 10 µg/mL [1, 8] was 0.9 ± 2.9%, the inhibition at 10 µg/mL [1, 9] was 96.7 ± 4% and the “effect on IGDS-induced cell migration (late events), in words” value (shortened to “effect on IGDS-induced cell migration”) [1] was “did not affect”. For the same molecule, the “effect on initial IGDS signalling (early events), in words” value (from here on “effect on initial IGDS signalling”) [1] was “selectively blocked”.

In the case of COc1cccc(-c2cc(=O)c3ccccc3o2)c1N [PD98059], the “Inhibitory activity: early events” value [1, 6] is reported as “early events: +”, the “Inhibitory activity: late events” value [1, 6] is reported as “late events: +” and the “% inhibition” value [1, 7] is reported as 99.8 ± 3.8%. The “% inhibition” value [1, 8] was 39.4 ± 5.0%, the “% inhibition” value [1, 9] was 90.5 ± 3.1% and the “effect on IGDS-induced cell migration” value [1] was “blocked”. The “effect on initial IGDS signalling” value [1] was “blocked”.

With “Ile-Gly-Asp (IGD; listed as Homo sapiens)” the “concentration at which significant bioactivity (migration stimulation) is first manifest” value ([2]; collagen gel assay, FIG. 1A) was 10 to 100 µM and the “effect on cell migration into native type I collagen gels” value [2] was “stimulated cell migration”.

For “Ile-Gly-Asp-Gin (IGDQ; listed as Homo sapiens)”, the “concentration at which significant bioactivity (migration stimulation) is first manifest” value ([2]; collagen gel assay, FIG. 1A) was 0.1 µM and the “effect on cell migration into native type I collagen gels” value [2] was “stimulated cell migration”.

With “Ile-Gly-Asp-Ser (IGDS; listed as Homo sapiens)” the “concentration at which significant bioactivity (migration stimulation) is first manifest” value ([2]; collagen gel assay, FIG. 1A) was 0.1 µM, the shape of dose-response ([2]; collagen gel assay, FIG. 1A) was “bell-shaped dose-response” and the “effect on cell migration into native type I collagen gels” value [2] was “stimulated cell migration”. For the same molecule, the “Fibroblasts (% field)” value (rat wound healing model; control 8.3 ± 6.7) was 18.2 ± 9.4 % field, the “Vessels (per field)” value (rat wound healing model; control 15.3 ± 5.5) was 26.7 ± 6.4 per field and the “persistence of effect on cell migration after pre-incubation” value ([3]; assayed in absence of further IGDS, dependent on pre-incubation time and peptide concentration, FIG. 4) was “persistent”. The “elevated migratory behaviour still manifest following passages in vitro” value ([3]; pre-incubated cells, data not shown) was 1–2 passages, the “activity on cell migration when present on its own” value ([4]; 0.01 μM (10^7 fM), FIG. 3A) was “inactive” and the “effect upon cell migration of co-incubation with the gelatin-binding domain” value ([4]; suboptimal concentrations of each, FIG. 3A) was “additive effect”. The “effect on cell migration through gelatin-coated membranes” value [5] was “devoid of activity”, the “effect on cell migration through membranes coated with native collagen” value [5] was “stimulated cell migration” and the “Positive responses (%)” value (chick yolk sac membrane; 5 ng/pellet) was “(50) %”. For the same molecule, the “Positive responses (positive/total)” value (chick yolk sac membrane; 5 ng/pellet) was 3/6, the “Positive responses (%)” value (chick yolk sac membrane; 50 ng/pellet) was “(64) %” and the “Positive responses (positive/total)” value (chick yolk sac membrane; 50 ng/pellet) was 7/11. For the same molecule, the “Positive responses (%)” value (chick yolk sac membrane; 250 ng/pellet) was “(77) %”, the “Positive responses (positive/total)” value (chick yolk sac membrane; 250 ng/pellet) was 10/13 and the “Positive responses (%)” value (chick yolk sac membrane; 1000 ng/pellet) was “(64) %”. For the same molecule, the “Positive responses (positive/total)” value (chick yolk sac membrane; 1000 ng/pellet) was 9/14, the “Positive responses (%)” value (chick yolk sac membrane; 3000 ng/pellet) was “(78) %” and the “Positive responses (positive/total)” value (chick yolk sac membrane; 3000 ng/pellet) was 7/9. For the same molecule, the “angiogenic response in the chick yolk sac membrane, in words” value (from here on “angiogenic response … in words”) (chick yolk sac membrane) was “elicited an angiogenic response; also recorded: stimulates angiogenesis” and the “angiogenic response elicited by pellet” value (chick yolk sac membrane; pellet containing 1.0 μg, 6-day chick embryos, 24 hr, FIG. 7) was “positive angiogenic response”.

In the case of “RGDS: structurally related RGDS tetrapeptide (synthetic peptide) (Peptide related to IGDS)”, the “effect on cell migration into native type I collagen gels” value [2] is reported as “devoid of migration stimulating activity”, the “concentrations required for inhibition of IGDS activity” value ([4]; FIG. 3B, 3C) is reported as “pmolar” and the “effect on the migration stimulating activity of IGDS (co-incubation)” value ([4]; FIG. 3B, 3C) is reported as “effectively inhibited”. The “effect on IGDS-induced cell migration” value [1] was “inhibited”, the “effect on initial IGDS signalling” value [1] was “inhibited” and the “Inhibitory activity: early events” value ([1]; peptide 10.0 μ molar) was “early events: +”. For the same molecule, the “Inhibitory activity: late events” value ([1]; peptide 10.0 μ molar) was “late events: +”, the “% inhibition” value [1, 10] was 92.3 ± 2.1% and the “% inhibition” value [1, 11] was 96.5 ± 5.7%. For the same molecule, the “% inhibition” value [1, 12] was 96.2 ± 4.8%, the “effect on cell migration through gelatin-coated membranes” value [5] was “inactive” and the “effect on cell migration through membranes coated with native collagen” value [5] was “inactive”. For the same molecule, the “Positive responses (%)” value (chick yolk sac membrane; 3000 ng/pellet) was “(9) %”, the “Positive responses (positive/total)” value (chick yolk sac membrane; 3000 ng/pellet) was 1/11 and the “angiogenic response … in words” value (chick yolk sac membrane) was “inactive”.

“RGES: RGES synthetic peptide (Peptide related to IGES)” was tested, and the “effect on the migration stimulating activity of IGDS (co-incubation)” value ([4]; FIG. 3B, 3C) was “no effect”, the “effect on IGDS-induced cell migration” value [1] was “inactive” and the “effect on initial IGDS signalling” value [1] was “inactive”. For the same molecule, the “Inhibitory activity: early events” value ([1]; peptide 10.0 μ molar) was “early events: −”, the “Inhibitory activity: late events” value ([1]; peptide 10.0 μ molar) was “late events: −” and the “% inhibition” value [1, 10] was 1.2 ± 2.1%. For the same molecule, the “% inhibition” value [1, 11] was 0.3 ± 2.8%, the “% inhibition” value [1, 12] was −1.0 ± 3.0% and the “Positive responses (%)” value (chick yolk sac membrane; 3000 ng/pellet) was “(10) %”. For the same molecule, the “Positive responses (positive/total)” value (chick yolk sac membrane; 3000 ng/pellet) was 1/10 and the “angiogenic response … in words” value (chick yolk sac membrane) was “inactive”.
